The values below come from ChEMBL document CHEMBL5584244, “Discovery of novel pyrrolo[2,1-c][1,4]benzodiazepine-3,11-dione (PBD) derivatives as selective HDAC6 inhibitors for the efficient treatment of idiopathic pulmonary fibrosis (IPF) in vitro and in vivo” (Eur J Med Chem, 2024).

One data set has as its target Histone deacetylase 1 (Homo sapiens, UniProt Q13547). The data set can be described thus: Inhibition of human HDAC1 incubated for 10 mins and measured after 30 mins by ELISA. In general terms: ELISA stands for enzyme-linked immunosorbent assay.
For data set [1], the target named is T1, Protein deacetylase HDAC6 (Homo sapiens, UniProt Q9UBN7).
T1 sequence (Q9UBN7 whole entry): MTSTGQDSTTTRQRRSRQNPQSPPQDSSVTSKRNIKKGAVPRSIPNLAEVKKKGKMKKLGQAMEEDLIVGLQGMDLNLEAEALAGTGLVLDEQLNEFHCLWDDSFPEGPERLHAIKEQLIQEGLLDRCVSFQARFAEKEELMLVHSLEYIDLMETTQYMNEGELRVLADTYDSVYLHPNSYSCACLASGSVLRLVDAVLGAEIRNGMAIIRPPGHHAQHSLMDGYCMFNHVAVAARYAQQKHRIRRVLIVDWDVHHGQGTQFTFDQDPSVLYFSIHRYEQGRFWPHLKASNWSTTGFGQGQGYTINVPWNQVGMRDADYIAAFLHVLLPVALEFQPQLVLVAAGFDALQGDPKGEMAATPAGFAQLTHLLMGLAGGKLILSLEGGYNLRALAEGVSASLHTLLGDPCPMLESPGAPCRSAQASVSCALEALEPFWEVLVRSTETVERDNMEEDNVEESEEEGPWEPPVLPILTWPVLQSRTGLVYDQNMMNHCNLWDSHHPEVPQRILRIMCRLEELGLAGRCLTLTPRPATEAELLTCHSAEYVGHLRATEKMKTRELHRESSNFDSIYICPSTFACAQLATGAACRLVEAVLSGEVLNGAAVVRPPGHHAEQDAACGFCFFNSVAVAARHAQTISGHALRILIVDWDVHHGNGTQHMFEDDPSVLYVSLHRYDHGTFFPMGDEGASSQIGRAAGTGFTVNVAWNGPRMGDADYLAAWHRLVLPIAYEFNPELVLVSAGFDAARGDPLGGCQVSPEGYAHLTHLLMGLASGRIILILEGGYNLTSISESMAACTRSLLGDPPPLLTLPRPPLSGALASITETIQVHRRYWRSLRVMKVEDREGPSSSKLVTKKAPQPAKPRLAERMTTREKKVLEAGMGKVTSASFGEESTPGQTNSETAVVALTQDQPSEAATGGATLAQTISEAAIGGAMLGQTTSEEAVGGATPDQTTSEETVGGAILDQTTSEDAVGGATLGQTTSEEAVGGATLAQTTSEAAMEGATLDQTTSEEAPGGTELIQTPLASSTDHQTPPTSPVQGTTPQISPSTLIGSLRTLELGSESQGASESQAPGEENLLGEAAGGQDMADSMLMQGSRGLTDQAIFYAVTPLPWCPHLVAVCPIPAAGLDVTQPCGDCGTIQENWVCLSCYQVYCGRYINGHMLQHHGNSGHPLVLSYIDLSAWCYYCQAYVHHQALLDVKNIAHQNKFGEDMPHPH
The data set can be described thus: Inhibition of human HDAC6 using Ac-Lys (Ac)-AMC as substrate incubated for 120 mins by fluorescence analysis.

For a further data set, the species on record is Homo sapiens. Put plainly: Selectivity index, ratio IC50 inhibition of human HDAC1 to IC50 for inhibition of human HDAC6 using Ac-Lys (Ac)-AMC as substrate.
The target of data set [2] is T1, Protein deacetylase HDAC6. Put plainly: Inhibition of recombinant human full length HDAC6 using Boc-Lys (Ac)-AMC as substrate incubated for 120 mins by fluorescence analysis.
The next data set concerns HELF. Put plainly: Antifibrotic activity against TGF-beta1-induced HELF cells assessed as reduction in viability at 10 uM after 48 hrs by MTT assay. The data set is classed as functional, cell-based. As to conditions: Homo sapiens. In general terms: Tetrazolium assays rely on reduction of a dye to a coloured formazan, in cell work by metabolically active cells.
The nature of data set [3]: Cytotoxicity against HELF cells assessed as reduction in viability at 10 uM after 48 hrs by MTT assay. The data set is classed as toxicity, cell-based. As to conditions: human.
Data set [4] in a line: Cytotoxicity against HELF cells assessed as reduction in viability at 1 to 300 uM after 48 hrs under without FBS condition by MTT assay. The class given is toxicity, cell-based. As to conditions: human, dose 1-300 µM.
In data set [5] the test system is Mus musculus. Put plainly: Anti-pulmonary fibrosis activity in bleomycin-induced C57BL/6 mouse model of pulmonary fibrosis assessed as increase in body weight at 100 mg/kg, ip for 3 weeks. The data set is classed as functional, organism-based.
In data set [6] the test system is Mus musculus. Put plainly: Anti-pulmonary fibrosis activity in bleomycin-induced C57BL/6 mouse model of pulmonary fibrosis assessed as decrease structural damage in lung at 100 mg/kg, ip for 3 weeks by H and E staining based fluorescence microscopic analysis. The data set is classed as functional, organism-based.
The test system of data set [7] is Mus musculus. Put plainly: Anti-pulmonary fibrosis activity in bleomycin-induced C57BL/6 mouse model of pulmonary fibrosis assessed as decrease in collapse of the alveolar cavity in lung at 100 mg/kg, ip for 3 weeks by H and E staining based fluorescence microscopic analysis. The data set is classed as functional, organism-based.
In data set [8] the test system is Mus musculus. The data set can be described thus: Anti-pulmonary fibrosis activity in bleomycin-induced C57BL/6 mouse model of pulmonary fibrosis assessed as decrease in disturbance of alveolar structure in lung at 100 mg/kg, ip for 3 weeks by H and E staining based fluorescence microscopic analysis. The class given is functional, organism-based.
In data set [9] the test system is Mus musculus. The data set can be described thus: Anti-pulmonary fibrosis activity in bleomycin-induced C57BL/6 mouse model of pulmonary fibrosis assessed as decrease in thickening of the alveolar wall in lung at 100 mg/kg, ip for 3 weeks by H and E staining based fluorescence microscopic analysis. The class given is functional, organism-based.
The subject of data set [10] is Mus musculus. The data set can be described thus: Anti-pulmonary fibrosis activity in bleomycin-induced C57BL/6 mouse model of pulmonary fibrosis assessed as decrease in inflammatory cell infiltration in lung at 100 mg/kg, ip for 3 weeks by H and E staining based fluorescence microscopic analysis. The class given is functional, organism-based.
Data set [11] concerns Mus musculus. Put plainly: Anti-pulmonary fibrosis activity in bleomycin-induced C57BL/6 mouse model of pulmonary fibrosis assessed as decrease in fibrosis scars in lung at 100 mg/kg, ip for 3 weeks by H and E staining based fluorescence microscopic analysis. The class given is functional, organism-based.
Data set [12] has as its system Mus musculus. The data set can be described thus: Anti-pulmonary fibrosis activity in bleomycin-induced C57BL/6 mouse model of pulmonary fibrosis assessed as decrease in structural damage in lung at 100 mg/kg, ip for 3 weeks by Masson trichrome staining based microscopic analysis. The class given is functional, organism-based.
The test system of data set [13] is Mus musculus. The data set can be described thus: Anti-pulmonary fibrosis activity in bleomycin-induced C57BL/6 mouse model of pulmonary fibrosis assessed as decrease in collapse of the alveolar cavity in lung at 100 mg/kg, ip for 3 weeks by Masson trichrome staining based microscopic analysis. The data set is classed as functional, organism-based.
Data set [14] has as its system Mus musculus. The data set can be described thus: Anti-pulmonary fibrosis activity in bleomycin-induced C57BL/6 mouse model of pulmonary fibrosis assessed as decrease in thickening of the alveolar wall in lung at 100 mg/kg, ip for 3 weeks by Masson trichrome staining based microscopic analysis. The data set is classed as functional, organism-based.
Data set [15] has as its system Mus musculus. Put plainly: Anti-pulmonary fibrosis activity in bleomycin-induced C57BL/6 mouse model of pulmonary fibrosis assessed as decrease in collagen level in lung at 100 mg/kg, ip for 3 weeks by Masson trichrome staining based microscopic analysis. The class given is functional, organism-based.

pIC50: −log10 of the molar value. Calls of active or inactive are those of the source. The calls are words filed in the database; no cut-off is given here.

The pIC50 is the negative decadic logarithm of the IC50, by convention in mol/L.

Chain of Histone deacetylase 1 (Q13547 whole entry): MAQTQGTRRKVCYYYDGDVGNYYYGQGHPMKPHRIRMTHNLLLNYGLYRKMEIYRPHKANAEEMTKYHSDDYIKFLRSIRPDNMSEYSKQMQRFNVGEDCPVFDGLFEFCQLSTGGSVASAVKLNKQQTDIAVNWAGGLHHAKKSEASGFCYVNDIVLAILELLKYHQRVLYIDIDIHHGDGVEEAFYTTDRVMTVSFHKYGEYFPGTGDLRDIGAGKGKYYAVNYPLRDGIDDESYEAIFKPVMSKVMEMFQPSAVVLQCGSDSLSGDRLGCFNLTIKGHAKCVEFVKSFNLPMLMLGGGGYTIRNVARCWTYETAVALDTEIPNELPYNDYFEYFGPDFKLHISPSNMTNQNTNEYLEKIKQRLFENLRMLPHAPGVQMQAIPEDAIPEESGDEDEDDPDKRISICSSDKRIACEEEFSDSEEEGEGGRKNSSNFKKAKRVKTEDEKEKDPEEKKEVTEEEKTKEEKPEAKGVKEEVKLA

For `O=C(CCCCCCCN1C(=O)[C@@H]2CCC(=O)N2Cc2ccccc21)NO`, the results for the pIC50 (against Histone deacetylase 1; in data set [1]; in data set [2]) were 6.10, 7.67 and 7.90, respectively. Further, the Ratio IC50 in the data set filed under Homo sapiens was found to be 36.8.

For `CN1CCc2c(c3ccccc3n2Cc2ccc(C(=O)NO)cc2)C1` [TUBASTATIN A], the outcome in the data set with HELF was Active. The Activity entry in data set [3] is “Non-Toxic”; in data set [4], “Toxic”.

For `Cc1ccc(=O)n(-c2ccccc2)c1`, the result in the data set with Mus musculus [5], in the data set with Mus musculus [6], in the data set on Mus musculus [7], in the data set on Mus musculus [8], in the data set with Mus musculus [9] and in the data set with Mus musculus [10] was Active. The outcome in the data set on Mus musculus [11] and in the data set on Mus musculus [15] was Active. The outcome with Mus musculus [12], with Mus musculus [13] and with Mus musculus [14] was inactive.
